Laboratory results taken from US4020076A, “Novel phosphoryloxy-thiazoles” (priority 1974, dated 1977).
Where two headings read alike, the source gives them in different places.

Legend:
Assay type in all cases: in vivo
[1] = system: Spodoptera littoralis; test: Ingestion test against Spodoptera littoralis caterpillars; conditions: po, read-out: percent of mortality
Protocol: e. Activity against Spodoptera littoralis
This test was effected with Spodoptera littoralis caterpillars 1 to 1.5 cm long and an average of 10 days old. In this ingestion test, 4 ml of an acetone solution of the test products was placed on lettuce rings with an 8 mm diameter which were placed in closed plastic dishes with a 5 cm diameter. 15 caterpillars were placed in each dish and were held at 20° C and 50% relative humidity and were fed when the insects had eaten the treated lettuce ring.

[2] = system: Blattella germanica; test: Topical application activity against Blattella germanica; conditions: read-out: percent of mortality
Protocol: b. Activity against Blattella germanica
This test was a topical application in which adult male Blattella germanica received 2 microliters of an acetone solution of the test products between the second and third pair of paws. After this treatment, the test insects were held in a dim light at 20° C and were fed. The results expressed as percent of mortality in Table II were read 24 and 48 hours and 5 days after the treatment.

[3] = system: Drosophila melanogaster; test: Vapor activity against Drosophila melanogaster; conditions: inhaled or nasal, read-out: percentage of mortality
Protocol: a. Activity against Drosophila melanogaster
This test measures the vapor activity of the compounds and the less than 48 hours old insects were placed in a Petri dish with a 10 cm diameter connected by a tergal screen to a crystallizer of the same diameter in which the test compound in acetone solution is placed. The said solution is evaporated after the insects have been placed and 3 tests with 25 insects were run for each concentration. The results are expressed in Table I as a percentage of mortality after 1, 2, 4 and 6 hours.

[4] = system: Sitophilus granarius; test: Topical application test against Sitophilus granarius; conditions: read-out: percent mortality
Protocol: c. Test against Sitophilus granarius
This topical application test comprised preparing the test compounds in acetone solution at concentrations of 5000, 500 and 50 mg of the active compound per liter and 0.2 μl of the solutions were applied to the ventral thorax of 50 Sitophilus granarius for each concentration.

[5] = system: Musca domestica; test: Topical application activity against Musca domestica; conditions: read-out: percent of mortality
Protocol: d. Activity against Musca domestica
This topical application test consisted of placing a microliter of an acetone solution of the test product on the dorsal thorax of Musca domestica after having been put to sleep with ether. The insects were held at 20° C and 50% relative humidity and were fed milk and water.

[6] = system: Musca domestica larvae; test: Contact-ingestion test against Musca domestica larvae; conditions: read-out: percent of mortality
Protocol: g. Activity against Musca domestica larvae
This contact-ingestion test consisted of placing 2 ml of an acetone solution of different concentrations of the test product on 1 g of bran placed in a watch glass and the solvent was evaporated. The treated bran was placed in a plastic dish and was admixed with 2 ml of milk. 20 3 to 4 day old larvae of Musca domestica were added to the bran and were held at 20° C and 30% relative humidity and 3 tests were conducted for each concentration.

[7] = system: Ditylenchus Myceliophagus; test: Acaricide activity, Ditylenchus Myceliophagus; conditions: 24 h, read-out: Percent of mortality after 24 hours
Protocol: In an apparatus containing 10 ml of an aqueous solution of the test product, 0.5 ml of water containing about 2000 acariens of Ditylenchus Myceliophagus were added thereto and the percent of mortality was determined by a binocular magnifying glass after 24 hours.

CCOc1nc(OP(=S)(OCC)OCC)c(C#N)s1 [A, 2-ethoxy-4-diethoxythiophosphoryloxy-5-cyano-thiazole]
mortality at 62.5 ppm ([1]; 1 H, 62.5 ppm, ingestion): 0%
mortality at 125 ppm ([1]; 1 H, 125 ppm, ingestion): 0%
mortality at 250 ppm ([1]; 1 H, 250 ppm, ingestion): 0%
mortality at 62.5 ppm ([1]; 48 H, 62.5 ppm, ingestion): 80%
mortality at 125 ppm ([1]; 48 H, 125 ppm, ingestion): 100%
mortality at 250 ppm ([1]; 48 H, 250 ppm, ingestion): 100%
mortality at 62.5 ppm ([1]; 24 h): 60%
mortality at 125 ppm ([1]; 24 h): 100%
mortality at 250 ppm ([1]; 24 h): 90%
mortality at 312.5 ppm ([2]; 24 H): 65%
mortality at 625 ppm ([2]; 24 H, 625 ppm): 100%
mortality at 1250 ppm ([2]; 24 H, 1250 ppm): 100%
mortality at 312.5 ppm ([2]; 48 H): 70%
mortality at 625 ppm ([2]; 48 H, 625 ppm): 100%
mortality at 1250 ppm ([2]; 48 H, 1250 ppm): 100%
mortality at 625 ppm ([2]; 120 h): 30%
mortality at 1250 ppm ([2]; 120 h): 100%
mortality at 5 ppm ([3]; 1 H): 99%
mortality at 50 ppm ([3]; 1 H): 100%
mortality at 500 ppm ([3]; 1 H): 100%
mortality at 5 ppm ([3]; 4 H): 100%
mortality at 50 ppm ([3]; 4 H): 100%
mortality at 500 ppm ([3]; 4 H): 100%
mortality at 5 ppm ([3]; 6 H): 100%
mortality at 50 ppm ([3]; 6 H): 100%
mortality at 500 ppm ([3]; 6 H): 100%
mortality at 50 ppm ([4]; 4 H): 0%
mortality at 500 ppm ([4]; 4 H): 100%
mortality at 5000 ppm ([4]; 4 H): 100%
mortality at 50 ppm ([4]; 24 H): 0%
mortality at 500 ppm ([4]; 24 H): 100%
mortality at 5000 ppm ([4]; 24 H): 100%
mortality at 50 ppm ([4]; 120 h, 5 Days): 0%
mortality at 500 ppm ([4]; 120 h, 5 Days): 100%
mortality at 5000 ppm ([4]; 120 h, 5 Days): 100%
mortality at 500 ppm ([5]; 1 H): 91%
mortality at 2500 ppm ([5]; 1 H): 100%
mortality at 5000 ppm ([5]; 1 H): 100%
mortality at 500 ppm ([5]; 24 H): 94%
mortality at 2500 ppm ([5]; 24 H): 100%
mortality at 5000 ppm ([5]; 24 H): 100%
mortality at 500 ppm ([6]; 48 H): 37%
mortality at 5000 ppm ([6]; 48 H): 64%
mortality at 500 ppm ([6]; 192 h, 8 Days): 63%
mortality at 5000 ppm ([6]; 192 h, 8 Days): 92%
mortality at 1 µg/mL ([7]; 0.001 g/l): 81.8%
mortality at 10 µg/mL ([7]; 0.010 g/l): 91.6%
mortality at 100 µg/mL ([7]; 0.1 g/l): 100%
